Among the data in patent US20220056019A1, “FARNESOID X RECEPTOR AGONISTS AND USES THEREOF” (Metacrine, Inc., priority 2018, published 2022) are EC50 values, retold here.

A value given as a limit tells only on which side of the number the result lay.

In this assay the target is T1, hFXR (Homo sapiens, UniProt Q96RI1).
T1 construct: expressed in transfected cells; host or cells: CV-1 cells
T1 sequence (Q96RI1 1-486): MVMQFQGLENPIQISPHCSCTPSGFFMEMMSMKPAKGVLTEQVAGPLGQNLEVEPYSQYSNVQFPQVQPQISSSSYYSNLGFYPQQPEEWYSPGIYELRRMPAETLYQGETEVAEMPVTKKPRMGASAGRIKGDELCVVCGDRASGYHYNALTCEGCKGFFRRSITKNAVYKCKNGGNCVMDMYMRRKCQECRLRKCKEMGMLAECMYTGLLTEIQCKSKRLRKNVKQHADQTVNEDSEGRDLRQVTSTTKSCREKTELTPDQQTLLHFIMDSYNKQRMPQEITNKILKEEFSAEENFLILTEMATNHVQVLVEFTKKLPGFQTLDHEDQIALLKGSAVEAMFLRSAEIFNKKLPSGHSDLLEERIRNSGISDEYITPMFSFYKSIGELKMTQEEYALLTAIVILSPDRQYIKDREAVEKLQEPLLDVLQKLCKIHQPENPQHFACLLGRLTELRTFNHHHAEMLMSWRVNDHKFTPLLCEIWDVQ
T1 sequence (P19793 1-462 partner): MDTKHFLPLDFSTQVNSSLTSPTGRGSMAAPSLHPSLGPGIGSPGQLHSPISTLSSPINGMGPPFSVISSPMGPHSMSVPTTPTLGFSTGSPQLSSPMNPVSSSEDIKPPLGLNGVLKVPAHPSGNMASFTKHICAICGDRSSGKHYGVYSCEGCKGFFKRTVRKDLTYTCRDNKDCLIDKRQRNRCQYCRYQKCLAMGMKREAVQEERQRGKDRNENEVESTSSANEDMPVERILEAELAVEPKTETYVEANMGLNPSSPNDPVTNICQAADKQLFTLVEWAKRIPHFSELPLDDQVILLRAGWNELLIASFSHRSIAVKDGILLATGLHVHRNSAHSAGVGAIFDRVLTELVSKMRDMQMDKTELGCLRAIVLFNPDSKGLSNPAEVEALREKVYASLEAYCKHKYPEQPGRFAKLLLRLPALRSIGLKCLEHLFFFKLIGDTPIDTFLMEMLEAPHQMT
Put plainly: In Vitro FXR Assay (TK): TK-ECRE-luc reporter in transfected CV-1 cells. In kind it is cell-based. The settings on record: 18 hrs incubation, luminescence. The method, boiled down:
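CV-1 cells transiently cotransfected with hFXR, hRXR, TK-ECRE-luc reporter and pCMX-YFP plasmids in charcoal-stripped serum medium. Serially diluted compounds added for 18 h at 37° C., then cells lysed and luciferase luminescence measured.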
As usually defined, the EC50 is the concentration that produces a half-maximal response. Low readings indicate an effect from little substance, high ones a need for much substance. `COc1ccc([C@H]2CC[C@H](CN(c3cccc(-c4cnn(C(C)C)c4)c3)C(=O)[C@H]3CC[C@H](NC(=O)CCCO)CC3)CC2)cc1C` [Compound 14, trans-4-(4-Hydroxybutanamido)-N-(3-(1-isopropyl-1H-pyrazol-4-yl)phenyl)-N-((trans-4-(4-methoxy-3-methylphenyl)cyclohexyl)methyl)cyclohexanecarboxamide] registered an EC50 of 50 to 1000 nM.
Next, `COc1ccc([C@H]2CC[C@H](CN(c3cccc(-c4cnn(C(C)C)c4)c3)C(=O)[C@H]3CC[C@H](NC(=O)C4CC(=O)C4)CC3)CC2)cc1C` [Compound 14.01, trans-N-(3-(1-Isopropyl-1H-pyrazol-4-yl)phenyl)-N-((trans-4-(4-methoxy-3-methylphenyl)cyclohexyl)methyl)-4-(3-oxocyclobutanecarboxamido)cyclo-hexanecarboxamide]: no more than 50 nM.
Next, `COc1ccc([C@H]2CC[C@H](CN(c3cccc(-c4cnn(C(C)C)c4)c3)C(=O)[C@H]3CC[C@H](NC(=O)C4CC(O)C4)CC3)CC2)cc1C` (stereo partly drawn) [Compound 14.02, (1r,4r)-4-(3-Hydroxycyclobutanecarboxamido)-N-(3-(1-isopropyl-1H-pyrazol-4-yl)phenyl)-N-((trans-4-(4-methoxy-3-methylphenyl)cyclohexyl)methyl) cyclohexanecarboxamide]: 50 to 1000 nM.
Next, `COc1ccc([C@H]2CC[C@H](CN(c3cccc(-c4cnn(C(C)C)c4)c3)C(=O)[C@H]3CC[C@H](CCO)CC3)CC2)cc1C` [Compound 15, trans-4-(2-Hydroxyethyl)-N-(3-(1-isopropyl-1H-pyrazol-4-yl)phenyl)-N-((trans-4-(4-methoxy-3-methylphenyl)cyclohexyl)methyl)cy-clohexanecarboxamide]: no more than 50 nM; `COc1ccc([C@H]2CC[C@H](CN(c3cccc(-c4cnn(C(C)C)c4)c3)C(=O)[C@H]3CC[C@H](OCCCO)CC3)CC2)cc1C` [Compound 16, trans-4-(3-Hydroxypropoxy)-N-(3-(1-isopropyl-1H-pyrazol-4-yl)phenyl)-N-((trans-4-(4-methoxy-3-methylphenyl)cyclohexyl)methyl)cyclohexanecarboxamide]: no more than 50 nM.
The molecule `COc1ccc([C@H]2CC[C@H](CN(c3cc(-c4cnn(C(C)C)c4)ccn3)C(=O)[C@H]3CC[C@H](OCCCO)CC3)CC2)cc1C` [Compound 16.01, trans-4-(3-Hydroxypropoxy)-N-(4-(1-isopropyl-1H-pyrazol-4-yl)pyridin-2-yl)-N-((trans-4-(4-methoxy-3-methylphenyl)cyclohexyl)methyl)cyclo-hexanecarboxamide] registered a concentration for a half-maximal effect (EC50) of no more than 50 nM.
Next, `COc1ccc([C@H]2CC[C@H](CN(c3cc(-c4cnn(C(C)C)c4)ccn3)C(=O)[C@H]3CC[C@H](CO)CC3)CC2)cc1C` [Compound 17, (trans)-4-(Hydroxymethyl)-N-(4-(1-isopropyl-1H-pyrazol-4-yl)pyridin-2-yl)-N-(((trans)-4-(4-methoxy-3-methylphenyl)cyclohexyl)methyl)cy-clohexanecarboxamide]: no more than 50 nM.
Next, `COc1ccc([C@H]2CC[C@H](CN(c3cccc(-c4coc(C5CC5)n4)c3)C(=O)[C@H]3CC[C@H](C(=O)OC)CC3)CC2)nc1C` [Compound 18, trans-Methyl 4-((3-(2-cyclopropyloxazol-4-yl)phenyl)((trans-4-(5-methoxy-6-methylpyridin-2-yl)cyclohexyl)methyl)carbamoyl)cyclo-hexanecarboxylate]: no more than 50 nM; `COc1ccc([C@H]2CC[C@H](CN(c3cccc(-c4coc(C5CC5)n4)c3)C(=O)[C@H]3CC[C@H](C(C)(C)O)CC3)CC2)nc1C` [Compound 19, trans-N-(3-(2-Cyclopropyloxazol-4-yl)phenyl)-4-(2-hydroxypropan-2-yl)-N-((trans-4-(5-methoxy-6-methylpyridin-2-yl)cyclohexyl)methyl)cyclohexanecar-boxamide]: no more than 50 nM.
Next, `COc1ccc([C@H]2CC[C@H](CN(c3cccc(-c4coc(C5CC5)n4)c3)C(=O)[C@H]3CC[C@H](CO)CC3)CC2)nc1C` [Compound 20, trans-N-(3-(2-Cyclopropyloxazol-4-yl)phenyl)-4-(hydroxymethyl)-N-((trans-4-(5-methoxy-6-methylpyridin-2-yl)cyclohexyl)methyl)cyclohexanecar-boxamide]: no more than 50 nM; `COc1ccc([C@H]2CC[C@H](CN(c3cccc(-c4cnn(C5CC5)c4)c3)C(=O)[C@H]3CC[C@H](C(C)O)CC3)CC2)cc1C` (stereo partly drawn) [Compound 21, trans-N-(3-(1-Cyclopropyl-1H-pyrazol-4-yl)phenyl)-4-(1-hydroxyethyl)-N-((trans-4-(4-methoxy-3-methylphenyl)cyclohexyl)methyl)cyclohexanecarboxamide]: no more than 50 nM.
Molecule `COc1ccc(C23CCC(CN(c4cc(-c5coc(C(C)C)n5)ccn4)C(=O)[C@H]4CC[C@H](OC(=O)NCCO)CC4)(CC2)CC3)cc1C` [Compound 22, 4-((4-(2-Isopropyloxazol-4-yl)pyridin-2-yl)((4-(4-methoxy-3-methylphenyl)bicyclo[2.2.2]octan-1-yl)methyl)carbamoyl)cyclohexyl (2-hydroxyethyl)trans-carbamate] yielded an EC50 of no more than 50 nM.
Next, `COc1ccc(C23CCC(CN(c4cc(-c5cnn(C(C)C)c5)ncn4)C(=O)[C@H]4CC[C@H](OC(=O)N5CC(O)C5)CC4)(CC2)CC3)cc1C` [Compound 23, 4-((6-(1-Isopropyl-1H-pyrazol-4-yl)pyrimidin-4-yl)((4-(4-methoxy-3-methylphenyl)bicyclo[2.2.2]octan-1-yl)methyl)carbamoyl)(trans-cyclohexyl) 3-hydroxyazetidine-1-carboxylate]: no more than 50 nM; `COc1ccc(C23CCC(CN(c4cc(-c5coc(C(C)C)n5)ccn4)C(=O)[C@H]4CC[C@H](OC(=O)N5CC(CO)C5)CC4)(CC2)CC3)cc1C` [Compound 23.01, 4-((4-(2-Isopropyloxazol-4-yl)pyridin-2-yl)((4-(4-methoxy-3-methylphenyl)bicyclo[2.2.2]octan-1-yl)methyl)carbamoyl)(trans-cyclohexyl) 3-(hydroxymethyl)azetidine-1-carboxylate]: no more than 50 nM; `COc1ccc(C23CCC(CN(c4cc(-c5coc(C(C)C)n5)ccn4)C(=O)[C@H]4CC[C@H](OC(=O)NCCCO)CC4)(CC2)CC3)cc1C` [Compound 23.02, 4-((4-(2-Isopropyloxazol-4-yl)pyridin-2-yl)((4-(4-methoxy-3-methylphenyl)bicyclo[2.2.2]octan-1-yl)methyl)carbamoyl)(trans-cyclohexyl)(3-hydroxypropyl)carbamate]: no more than 50 nM.
Take `COc1ccc(C23CCC(CN(c4cc(-c5coc(C(C)C)n5)ccn4)C(=O)[C@H]4CC[C@H](OC(=O)N5CC(S(C)(=O)=O)C5)CC4)(CC2)CC3)cc1C` [Compound 23.03, 4-((4-(2-Isopropyloxazol-4-yl)pyridin-2-yl)((4-(4-methoxy-3-methylphenyl)bicyclo[2.2.2]octan-1-yl)methyl)carbamoyl)(trans-cyclohexyl) 3-(methylsulfonyl)azetidine-1-carboxylate]: the EC50 was no more than 50 nM.
